Earlier results on one compound are cited in patent US20030219387A1, “Local delivery of agents for disruption and inhibition of bacterial biofilm for treatment of periodontal disease” (priority 2000, published 2003).

With `CC(=N)N1CC[C@H](Oc2ccc([C@H](Cc3ccc4ccc(C(=N)N)cc4c3)C(=O)O)cc2)C1` [DX-9065a], in the data set on P. gingivalis, the “reduction of P. gingivalis growth” value was “selectively reduces P. gingivalis growth”. In addition, the inhibition of gingipain entry in the data set with gingipain is given as “can inhibit gingipain”.
